Drawing on ChEMBL document CHEMBL1135139, “Solid-phase synthesis of thrombin inhibitors” (Bioorg Med Chem Lett, 2002), this text covers IC50 for 1 molecule.

This test deals with Prothrombin (Homo sapiens, UniProt P00734). Description: In vitro Inhibitory concentration against Thrombin.

Structures are written as SMILES.

Broadly, the IC50 is the concentration needed to halve the response being measured. A higher IC50 goes with weaker potency in that assay. In turn, `N=C(N)c1ccc(CNC(=O)[C@@H]2C=CCN2C(=O)[C@@H](CC2CCCCC2)NCC(=O)O)s1` showed an IC50 of 3.6 nM.
